Results reported in US9862792B2, “Diblock copolymers and polynucleotide complexes thereof for delivery into cells” (University of Washington, priority 2008, dated 2018).

Columns and labels:
caspase 3/7 = experiment: Caspase 3/7 activity assay in HeLas; format: cell-based, human; details: HeLa, 30 minutes, 25 μM peptide or equivalent polymer; relative to no treatment
Description: Caspase 3/7 Activity Assay. Caspase 3/7 activation was measured using a commercially available assay kit. This assay utilizes a profluorescent caspase 3/7 substrate that once enzymatically cleaved becomes fluorescent allowing for determination of relative enzyme activity using a fluorescent plate reader. Here, HeLas were incubated for 30 minutes with 25 μM peptide (alone or as polymer conjugate) in addition to polymer alone in a quantity equivalent to the conjugate samples. Afterwards, a caspase 3/7 fluorigenic indicator was added directly to the culture media for each sample. Plates were shaken for 1 hour and then assayed using a fluorescent plate reader. Data were expressed as percent caspase activity relative to samples receiving no treatment.

[1] = system: mitochondrial membrane potential in HeLas; experiment: Flow cytometry of mitochondrial membrane potential (JC-1 dye); format: cell-based, human; details: HeLa, 2 hours, 10 μM peptide or equivalent conjugate or polymer alone; versus no treatment
Description: Flow Cytometry Evaluation of Mitochondrial Membrane Potential. Loss of mitochondrial membrane potential, a known indicator for apoptosis, was assessed using the JC-1 dye. […] HeLas were incubated for 2 hours with 10 μM peptide or equivalent conjugate or polymer alone. JC-1 was added at a final concentration of 5 μg/mL and incubated for 15 minutes. Cells were washed 2 times with PBS, trypsinized, and resuspended in 0.5% BSA for flow cytometric analysis. Percent of cells displaying mitochondrial depolarization was quantified based on the number of green fluorescent cells that were negative for red fluorescence. Here, a significant loss of red fluorescent JC-1 aggregates and therefore a loss in mitochondrial polarization was detected following treatment with both the Antp-BH3 peptide and the polymer peptide conjugate (FIG. 21 A).

NH2-RQIKIWFQNRRMKWKKMGQVGRQLAIIGDDINRRYDSC-COOH (H-RQIKIWFQNRRMKWKKMGQVGRQLAIIGDDINRRYDSC-OH) [Antp-BH3]
caspase 3/7 activation (caspase 3/7): approximately 2.5 fold | increase in percent of cells exhibiting loss of mitochondrial polarity [1]: approximately 4 fold
